Reference: US11767286B2, “Phenylpropionate compound, preparation method for same, and applications thereof” (SUZHOU PHARMAVAN CO., LTD, priority 2017, dated 2023)

Key:
[1] = tested on: IL-1β; test: Inflammatory factor IL-1β in blood and brain tissues of rats with acute cerebral ischemia-reperfusion; format: in vivo, SD rats; conditions: 4 mg/kg iv 2 h after reperfusion; 4 h after administration; n=5
Method: (§1) Trial method: Effects on inflammatory factors and blood viscosity of rats with acute cerebral ischemia-reperfusion: 70 Male SD rats underwent an MACO surgery by a suture method, and after the surgery, alive rats were randomly grouped (into 7 groups, the number of successful animals in each group was guaranteed to be 6 to 8). Blood perfusion was recovered 2 h after MCAO, and corresponding trial medicaments were intravenously injected 2 h after blood reperfusion. 4 hours after the administration, blood was collected and the rats were sacrificed to take out brain tissues. The brain tissues and part of the blood were centrifuged to collect serum which was detected for inflammatory factors, and part of the blood was detected for blood viscosity by using a blood viscometer. Detected indicators: cerebral infarction area; inflammatory factors IL-1β and TNF-α; and blood viscosity.
(§2) Table 3 lists results of effects of phenylpropionate compounds (4 mg/kg) on inflammatory factors in blood and brain tissues of rats (n=5).

[2] = tested on: rats with acute cerebral ischemia-reperfusion; test: Cerebral infarction area of rats with acute cerebral ischemia-reperfusion (MCAO, suture method); format: in vivo, SD rats; parameters: Cerebral Infarction Area: unit not given here; conditions: n=5; for Cerebral Infarction Area: 4 mg/kg iv 2 h after reperfusion (2 h MCAO), sampled 4 h after administration; for inhibition in vivo at 4 mg/kg: Rattus norvegicus, 4 h, 4 mg/kg iv 2 h after reperfusion, vs solvent control, read-out: Percentage of Cerebral Infarction Area Reduction
Method: as §1
Table 1 lists results of effects of phenylpropionate compounds (4 mg/kg) on cerebral infarction area of rats with acute cerebral ischemia (n=5).

[3] = tested on: platelet aggregation induced with ADP; test: Maximum platelet aggregation rate of rabbits, induced with ADP; format: cell-based; conditions: rabbit plasma, 4 mg/kg as printed, n=3; for inhibition at 4 mg/kg: Oryctolagus cuniculus, Platelet
Method: Effects on maximum platelet aggregation rate of rabbits: 3 Rabbits were anesthetized, and blood was collected from the heart to obtain 14 parts of plasma for each rabbit (1 ml per part of plasma). 7 Parts were induced with ADP to allow platelet aggregation, and 7 parts were induced with a platelet activating factor. After the induction, a solvent, positive control drug aspirin, and 5 samples to be trialed were separately added to the plasma, and maximum platelet aggregation rate was detected with a platelet aggregation meter. The trials were repeated 3 times, and an average was taken. Detected indicator: maximum platelet aggregation rate.
Table 4 lists results of effects of phenylpropionate compounds (4 mg/kg) on platelet aggregation rate of rabbits (n=3).

[4] = tested on: TNF-α; test: Inflammatory factor TNF-α in blood and brain tissues of rats with acute cerebral ischemia-reperfusion; format: in vivo, SD rats; conditions: 4 mg/kg iv 2 h after reperfusion; 4 h after administration; n=5
Method: as §1, §2

[5] = tested on: SD rat model of focal ischemia-reperfusion; test: Dose-effect relationship in SD rat model of focal ischemia-reperfusion (MCAO); format: in vivo, SD rats; conditions: given 2 h after reperfusion, mean ± standard error; for Score of Symptoms of Neurological Deficits: 48 h, modified Bederson 5-point scale; for Infarction area: evaluated after 48 h
Method: In this example, phenylpropionate compounds were studied for dose-effect relationship, with D-bornyl ferulate (administrated at 4.0 mg/kg) and D-tanshinol borneol ester (administrated at 4.0 mg/kg) as positive control drugs. Structures of D-bornyl ferulate (Patent Application No.: 201510243181.5) and D-tanshinol borneol ester compounds are as follows:
Trial method: A cerebral ischemia reperfusion model of middle cerebral artery occlusion (MCAO) was prepared by an internal carotid artery suture method. An animal was anesthetized with 10% chloral hydrate (3.6 mL/kg) and then fixed on an operating table in a supine position. Its skin was disinfected, and a midline incision was made on the neck. The right common carotid artery, external carotid artery, and internal carotid artery were separated, the vagus nerve was gently striped off, and the external carotid artery was ligated and cut. The common carotid artery was clamped at the proximal end. […] The nylon thread was advanced through the bifurcation of the common carotid artery into the internal carotid artery, and then was slowly inserted until there was slight resistance (about 20 mm from the bifurcation) to block all the blood supply to the middle cerebral artery. 2 h after cerebral ischemia, the nylon thread was gently pulled out to restore blood supply for reperfusion, and the neck skin was sutured and disinfected. The animal was put back in a cage and raised. During the modeling operation, animals with abnormal conditions due to anesthesia, surgery, etc. were excluded, and successfully modeled animals were randomly grouped. Schemes were set according to different trial doses, and drug treatment was given 2 h after cerebral ischemia-reperfusion. Death conditions were recorded every day after the surgery, and indicators were evaluated after 48 h. In the whole trial process, general conditions were observed, mainly including: death, coma, breathing, urine and feces traits, hair colors, mental status, vomiting and vomitus, bleeding, convulsion, spasm, etc. Abnormal animals due to unexpected factors were excluded. Finally, unblinding was conducted by a person who made blind trials.
Evaluated indicator: (1) Evaluation of symptoms of neurological deficits: The symptoms of neurological deficits were evaluated by using a modified Bederson 5-point scale. A single-blind method was used for evaluating the symptoms of neurological deficits in rats with brain trauma. That is, a trial designer marked animals in accordance with groups, and an experimenter who scored the symptoms of neurological deficits had no knowledge of how the animals were grouped. After scoring was completed, the scorer submitted scoring results for various marks to the designer, and the designer performed unblinding to obtain scores of animals in each trial group. (2) Measurement of cerebral infarction area: A method reported in the literature was used. An animal was anesthetized with 10% chloral hydrate and decapitated to collect brain. The olfactory bulb, cerebellum and lower brain stem were removed. Blood stains on the surface of the brain were rinsed with normal saline, the residual water stains on the surface were absorbed, and the brain was placed at −80° C. for 7 min. After the brain was taken out, a coronal section was immediately made at downwards and vertical to the sight intersection plane, and brain slices were made every 2 mm backwards. Brain slices were placed in a TTC (20 g/L) dye solution prepared with 0.9% normal saline, and incubated at 37° C. for 90 min. Normal brain tissues were stained deep red, and ischemic brain tissues were pale-white. After rinsed with normal saline, the brain sections were quickly arranged in order from front to back, the residual water stains on the surface were absorbed to dryness, and pictures were taken. Image analysis software was used for statistics on the pictures. […]

COc1cc(CCC(=O)O[C@H]2C[C@H]3CC[C@]2(C)C3(C)C)cc(OC)c1O [Compound C]
IL-1β [1]: 59.3 ± 8.7 ng/L | Cerebral Infarction Area [2]: 19.6 ± 5.38 | inhibition in vivo at 4 mg/kg [2]: 46.6% | inhibition at 4 mg/kg [3]: 56.5% | Maximum Aggregation Rate [3]: 14.3 ± 5.64 % | TNF-α [4]: 634 ± 25.1 ng/L | Score of Symptoms of Neurological Deficits ([5]; 2.0 mg/kg): 2.45 ± 0.13 | Infarction area ([5]; 2.0 mg/kg): 22.24 ± 2.84 % | Score of Symptoms of Neurological Deficits ([5]; 4.0 mg/kg): 2.18 ± 0.23 | Infarction area ([5]; 4.0 mg/kg): 21.04 ± 2.14 % | Score of Symptoms of Neurological Deficits ([5]; 8.0 mg/kg): 1.98 ± 0.14 | Infarction area ([5]; 8.0 mg/kg): 19.32 ± 3.53 %

COc1cc(CCC(=O)O[C@H]2C[C@H]3CC[C@]2(C)C3(C)C)cc(F)c1O [Compound A]
IL-1β [1]: 53.8 ± 6.4 ng/L | Cerebral Infarction Area [2]: 18.6 ± 2.65 | inhibition in vivo at 4 mg/kg [2]: 49.3% | inhibition at 4 mg/kg [3]: 52.3% | Maximum Aggregation Rate [3]: 15.7 ± 6.31 % | TNF-α [4]: 615 ± 42.9 ng/L | Score of Symptoms of Neurological Deficits ([5]; 2.0 mg/kg): 2.05 ± 0.20 | Infarction area ([5]; 2.0 mg/kg): 24.73 ± 2.63 % | Score of Symptoms of Neurological Deficits ([5]; 4.0 mg/kg): 1.94 ± 0.19 | Infarction area ([5]; 4.0 mg/kg): 20.25 ± 2.53 % | Score of Symptoms of Neurological Deficits ([5]; 8.0 mg/kg): 1.75 ± 0.21 | Infarction area ([5]; 8.0 mg/kg): 18.38 ± 2.74 %
